Assays:
COX-1 = biological target: T1, COX-1 (Ovis aries, UniProt P05979); assay: biochemical; conditions: ovine COX-1/COX-2 assay kit; mean of two determinations, deviation < 10% of the mean
T1 construct: purchased Cayman chemical, MI, USA
T1 sequence (P05979 25-600): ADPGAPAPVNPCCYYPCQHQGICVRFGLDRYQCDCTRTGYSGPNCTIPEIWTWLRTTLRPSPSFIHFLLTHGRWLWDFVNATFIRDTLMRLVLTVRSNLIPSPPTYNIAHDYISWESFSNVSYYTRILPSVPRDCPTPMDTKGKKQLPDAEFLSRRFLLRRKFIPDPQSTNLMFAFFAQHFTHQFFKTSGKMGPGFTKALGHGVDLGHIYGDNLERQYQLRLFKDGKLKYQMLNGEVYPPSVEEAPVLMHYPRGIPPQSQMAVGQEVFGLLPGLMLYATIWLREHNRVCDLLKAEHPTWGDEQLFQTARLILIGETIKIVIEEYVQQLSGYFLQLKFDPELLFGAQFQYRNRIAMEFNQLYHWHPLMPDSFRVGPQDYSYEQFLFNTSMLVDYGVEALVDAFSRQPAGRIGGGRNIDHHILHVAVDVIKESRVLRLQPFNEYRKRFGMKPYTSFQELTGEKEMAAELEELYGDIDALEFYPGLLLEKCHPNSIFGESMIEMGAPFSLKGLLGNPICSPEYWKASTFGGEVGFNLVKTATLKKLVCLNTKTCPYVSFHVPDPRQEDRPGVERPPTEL
Procedure: (§1) In-vitro cyclooxygenase (COX) inhibition assays
(§2) The assay was performed using an enzyme chemiluminescent kit (Cayman chemical, MI, USA) according to the previously reported method ([17]).

COX-2 = biological target: T2, COX-2 (Ovis aries, UniProt P79208); assay: biochemical; conditions: for IC50: ovine COX-1/COX-2 assay kit, mean of two determinations, deviation < 10% of the mean
T2 construct: purchased Cayman chemical, MI, USA
T2 sequence (P79208 17-603): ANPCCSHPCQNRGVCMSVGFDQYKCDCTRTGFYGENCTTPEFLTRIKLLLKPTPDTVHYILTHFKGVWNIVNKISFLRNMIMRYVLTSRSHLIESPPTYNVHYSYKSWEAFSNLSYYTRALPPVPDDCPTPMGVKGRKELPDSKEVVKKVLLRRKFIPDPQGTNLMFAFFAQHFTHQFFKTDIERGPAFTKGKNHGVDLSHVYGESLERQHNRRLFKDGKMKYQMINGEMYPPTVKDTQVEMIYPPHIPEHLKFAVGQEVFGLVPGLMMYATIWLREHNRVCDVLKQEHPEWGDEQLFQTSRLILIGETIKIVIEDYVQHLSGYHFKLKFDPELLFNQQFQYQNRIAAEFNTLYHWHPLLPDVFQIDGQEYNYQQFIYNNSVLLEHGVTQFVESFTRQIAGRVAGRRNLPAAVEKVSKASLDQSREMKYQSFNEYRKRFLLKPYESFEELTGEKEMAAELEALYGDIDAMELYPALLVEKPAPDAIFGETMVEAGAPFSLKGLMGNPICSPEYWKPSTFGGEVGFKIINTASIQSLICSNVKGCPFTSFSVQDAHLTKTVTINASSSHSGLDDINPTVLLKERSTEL
Procedure: as §1, §2

SMILES	IC50 (COX-1)	IC50 (COX-2)	S.I. In-vitro COX-2 selectivity index (COX-1 IC50/COX-2 IC50) (COX-2)
CS(=O)(=O)c1ccc(C(=O)NC(Cc2cnc[nH]2)C(=O)O)cc1 (stereo not drawn) [Compound 2c, p-MeSO2Bz -His]	> 100 µM	> 100 µM	
[N-]=[N+]=Nc1ccc(C(=O)NC(Cc2ccccc2)C(=O)O)cc1 (centres unmarked) [Compound 1d, p-azidobenzoyl-phenylalanine]	55.5 µM	> 100 µM	
CS(=O)(=O)c1ccc(C(=O)NC(Cc2c[nH]c3ccccc23)C(=O)O)cc1 (stereo not drawn) [Compound 4c, p-MeSO2Bz -Trp]	16.6 µM	0.09 µM	184.4
[N-]=[N+]=Nc1ccc(C(=O)NC(Cc2c[nH]cn2)C(=O)O)cc1 (centres unmarked) [Compound 2d, p-N3Bz -His]	28.1 µM	0.08 µM	351.2
CS(=O)(=O)c1ccc(C(=O)NC(Cc2ccc(O)cc2)C(=O)O)cc1 (stereo not drawn) [Compound 3c, p-MeSO 2 Bz -Tyr]	25.2 µM	0.23 µM	109.6
CS(=O)(=O)c1ccc(C(=O)NC(Cc2ccccc2)C(=O)O)cc1 (centres unmarked) [Compound 1c, p-(methylsulfonyl)benzoyl-phenylalanine]	> 100 µM	> 100 µM	
[N-]=[N+]=Nc1ccc(C(=O)NC(Cc2ccc(O)cc2)C(=O)O)cc1 (centres unmarked) [Compound 3d, p-N3Bz -Tyr]	20.9 µM	10.1 µM	2.1
[N-]=[N+]=Nc1ccc(C(=O)NC(Cc2c[nH]c3ccccc23)C(=O)O)cc1 (centres unmarked) [Compound 4d, p-N3Bz -Trp]	> 100 µM	> 100 µM	

— article PMC5937080, “Design, Synthesis and Biological Evaluation of Novel Peptide-Like Analogues as Selective COX-2 Inhibitors” (Iranian Journal of Pharmaceutical Research : IJPR, 2018)
